Laboratory results published in publication PMC5700161, “Structure of human immunoproteasome with a reversible and noncompetitive inhibitor that selectively inhibits activated lymphocytes” (Nature Communications, 2017).

Legend:
β2c = β2c (Homo sapiens, UniProt Q99436); assay: IC50 against β2c of human constitutive proteasome (Z-VLR-AMC); conditions: read-out: IC50 2c - VLR (β2c); substrate Z-VLR-AMC
Procedure: (§4) IC50s of all compounds against β5i and β5c (Table 2) and against β1i, β2i, β1c, and β2c (Supplementary Table 1) were determined following reported methods[8].

β2i = β2i (Homo sapiens, UniProt P40306); assay: IC50 against β2i of human immunoproteasome (Z-VLR-AMC); conditions: read-out: IC50 2i - VLR (β2i); substrate Z-VLR-AMC
Procedure: as §4

HepG2 cells = assay: Cytotoxicity, CellTiter-glo, HepG2; conditions: read-out: EC50 HepG2, 72 h
Procedure: (§1) Fig. 4 Intracellular proteasome inhibition by PKS21221 and its cytotoxicity against transformed cell lines. a Karpas 1106P lymphoma cells (white and black symbols) or HepG2 cells (blue symbols) were treated with PKS21221 for 2 h at the concentrations indicated prior to incubation with substrate (Ac-ANW)2R110 for β5i (Karpas cells) or suc-LLVY-luciferin for β5 (Karpas cells and HepG2 cells). […] Cell viability was determined by CellTiter-glo. Data are means ± SEM of three to four independent experiments
(§2) We incubated MM.1S, RPMI 8226, Karpas and HepG2 cells with PKS21221 at different concentrations, and determined cell viability after 72 h (Fig. 4b).
(§3) We used Karpas 1106P B lymphoma cell line (Cat. No. 06072607, Aldrich)[15],[16],[52], HepG2 (HB-8065, ATCC), MM.1S (Cat. No. CRL-2974, ATCC). Cells were cultured at 37 °C in a humidified air/5% CO2 atmosphere in medium supplemented with 10% fetal bovine serum, except for the medium for Karpas 1106P cells which contained 20% fetal bovine serum, and 100 units per ml penicillin, 100 μg per ml streptomycin in RPMI 1640 medium. Karpas 1106P was used at 80,000 cells per well, MM.1S at 100,000 cells per well, and HepG2 at 12,000 cells per well. […] Viable cells were counted using Cell-titer Glo assay kit. EC50s were calculated using PRISM (Graphpad).

human β5c = human β5c (Homo sapiens, UniProt P20618+P28074); assay: IC50 determination against human β5c of c-20S
Procedure: as §4

[1] = target: T1, β5i in Karpas 1106P cells (Homo sapiens, UniProt P20618+P28062); assay: Intracellular β5i activity in Karpas 1106P cells, (Ac-ANW)2-R110; format: cell-based
T1 construct: host or cells: Karpas 1106P
Procedure: To determine if this class of inhibitors is cell penetrable, we treated the B-cell lymphoma line Karpas 1106P[28] (expressing a high proportion of i-20S over c-20S) with PKS21221 before incubation with either (Ac-ANW)2-R110 (a specific substrate of β5i) or suc-LLVY-luciferin (a substrate of β5) (Fig. 4a). […] No β5i activity was detected in HepG2 cells using (Ac-ANW)2-R110 as a substrate.
Cell viability was determined by CellTiter-glo.
Intracellular proteasomal activity and inhibition assay were performed as reported. Karpas 1106P (80,000 cells per well) were plated and incubated with compound at indicated concentrations for 1 h at 37 °C. The activity of the overall β5 activity including β5i and β5c in each was measured in situ after compound removal with Proteasome-Glo assay kit according to manufacturer’s instructions. Luminescence was recorded on a SpectraMax M5 plate reader. Relative percentage of RLU was used to calculate the IC50s.

β5i (i-20S) = target: T2, β5i (i-20S) (Homo sapiens, UniProt P20618+P28062); assay: Kinetics studies of modality of inhibition against β5i; format: biochemical
T2 construct: purchased Boston Biochem
Procedure: Data as in d are shown in double reciprocal plots in e, and data from f in g. […] Data are means ± SEM of three independent experiments […]
With increasing concentrations of PKS21004, both V max and K M decreased (Fig. 1d–g and Supplementary Fig. 1). […] This class thus joins a growing list of noncompetitive proteasome inhibitors[5],[30].
Supplementary Figure 11. Inhibition kinetics of PKS21221 against i-20S β5i. (A) Steady state velocities of the Ac-ANW-AMC hydrolysis at 10, 15, 25, 35 µM by i-20S β5i (0.4 nM) in the presence of PKS21221 at indicated concentrations were determined at 37 °C and plotted by RFU versus substrate concentration (A); values of KM, Ki and α were estimated by PRISM using equation V = (Vmax / (1 + I / (α*Ki))) * S / (KM * (1+ I / Ki) / (1 + I / (α*Ki)) + S); (B) Lineweaver-Burk plot of the data in (A). (C) Plot of KM versus concentrations of PKS21221 indicates a mixed type inhibition. (D) Plot of Vmax versus concentrations of PKS21221.
(1 picture or pasted object on this page, not shown here)

MM.1S cells = assay: Cytotoxicity, CellTiter-glo, MM.1S; format: cell-based; conditions: 72 h
Procedure: as §1, §2, §3

In the case of `Cc1ccc(S(=O)(=O)N[C@@H](CC(=O)NC(C)(C)C)C(=O)NCCNC(=O)c2cc(-c3ccccc3F)ccc2F)cc1` [PKS21221], the IC50 (β2c) is reported as > 50000 nM, the IC50 (β2i) is reported as > 50000 nM and the EC50 (HepG2 cells) is reported as 2320 ± 630 nM. The “Hill coefficient constant, inhibition of β5c” value (human β5c) was ~ 1, the IC50 (human β5c; read-out: IC50 against β5c) was 110 nM and the IC50 [1] was 172 ± 33 nM. For the same compound, the “α for β5i (αi-20S)” value (β5i (i-20S)) was 0.26, the “modality of inhibition of β5i” value (β5i (i-20S); versus substrate) was “noncompetitive” and the EC50 (MM.1S cells) was 78 ± 30 nM.
